Reference: ChEMBL document CHEMBL1770059, “Identification of chemicals to inhibit the kinase activity of leucine-rich repeat kinase 2 (LRRK2), a Parkinson's disease-associated protein” (Bioorg Med Chem Lett, 2011)

What was measured:
[1] = system: Leucine-rich repeat serine/threonine-protein kinase 2 (Homo sapiens), Q5S007 [G2019S]; experiment: Inhibition of LRRK2 G2019S mutant expressed in mouse SN4741 cells assessed as reduction in hydrogen peroxide-induced neurotoxicity at 10 uM by measuring cell survival after 48 hrs by crystal violet assay relative to control; type: cell-based
[2] = biological target: T1, Serine/threonine-protein kinase TAO2 (Homo sapiens) (UniProt Q9UL54); experiment: Inhibition of TAO2 assessed as residual activity of enzyme at 25 uM
T1 sequence (whole entry): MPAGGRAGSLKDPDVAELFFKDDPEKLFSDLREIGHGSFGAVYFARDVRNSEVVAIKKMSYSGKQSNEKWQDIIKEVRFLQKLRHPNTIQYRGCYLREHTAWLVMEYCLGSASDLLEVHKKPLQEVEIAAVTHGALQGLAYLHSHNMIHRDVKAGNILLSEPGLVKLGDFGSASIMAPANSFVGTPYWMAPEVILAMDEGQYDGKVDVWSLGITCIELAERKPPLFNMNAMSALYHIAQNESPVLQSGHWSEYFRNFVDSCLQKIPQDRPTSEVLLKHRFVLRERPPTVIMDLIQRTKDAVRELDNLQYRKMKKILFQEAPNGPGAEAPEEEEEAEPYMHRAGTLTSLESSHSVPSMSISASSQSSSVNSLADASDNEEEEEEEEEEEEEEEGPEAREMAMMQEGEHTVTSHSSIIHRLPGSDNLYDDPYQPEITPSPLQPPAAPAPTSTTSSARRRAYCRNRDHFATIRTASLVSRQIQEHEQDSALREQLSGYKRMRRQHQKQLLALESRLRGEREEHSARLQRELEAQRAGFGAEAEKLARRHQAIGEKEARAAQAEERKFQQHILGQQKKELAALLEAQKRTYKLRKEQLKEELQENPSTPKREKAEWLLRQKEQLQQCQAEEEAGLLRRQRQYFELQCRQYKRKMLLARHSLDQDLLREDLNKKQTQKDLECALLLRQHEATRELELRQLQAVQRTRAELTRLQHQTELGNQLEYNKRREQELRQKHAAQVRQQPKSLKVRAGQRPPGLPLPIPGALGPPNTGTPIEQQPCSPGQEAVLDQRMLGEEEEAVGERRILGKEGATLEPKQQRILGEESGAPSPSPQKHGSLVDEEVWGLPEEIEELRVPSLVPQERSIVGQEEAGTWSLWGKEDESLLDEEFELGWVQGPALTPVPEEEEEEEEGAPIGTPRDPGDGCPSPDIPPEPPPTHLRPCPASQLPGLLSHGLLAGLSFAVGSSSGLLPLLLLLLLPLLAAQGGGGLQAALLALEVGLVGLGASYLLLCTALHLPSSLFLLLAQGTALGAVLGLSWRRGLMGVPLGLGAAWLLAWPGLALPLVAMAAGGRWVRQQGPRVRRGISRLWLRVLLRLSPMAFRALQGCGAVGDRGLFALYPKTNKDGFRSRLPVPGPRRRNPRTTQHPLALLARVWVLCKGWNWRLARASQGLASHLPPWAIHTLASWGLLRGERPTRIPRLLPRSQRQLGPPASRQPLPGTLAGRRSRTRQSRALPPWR

[3] = biological target: Cyclin-dependent kinase 5/CDK5 activator 1 (Homo sapiens) (UniProt Q00535+Q15078); experiment: Inhibition of CDK5/p25 assessed as residual activity of enzyme at 10 uM; type: protein-complex assay
[4] = biological target: Leucine-rich repeat serine/threonine-protein kinase 2 (Homo sapiens) (UniProt Q5S007); experiment: Inhibition of wild type LRRK2 expressed in mouse SN4741 cells assessed as reduction in hydrogen peroxide-induced neurotoxicity at 10 uM by measuring cell survival after 48 hrs by crystal violet assay relative to control; type: cell-based
[5] = biological target: T2, Serine/threonine-protein kinase TAO1 (Homo sapiens) (UniProt Q7L7X3); experiment: Inhibition of TAO1 assessed as residual activity of enzyme at 10 uM
T2 sequence (whole entry): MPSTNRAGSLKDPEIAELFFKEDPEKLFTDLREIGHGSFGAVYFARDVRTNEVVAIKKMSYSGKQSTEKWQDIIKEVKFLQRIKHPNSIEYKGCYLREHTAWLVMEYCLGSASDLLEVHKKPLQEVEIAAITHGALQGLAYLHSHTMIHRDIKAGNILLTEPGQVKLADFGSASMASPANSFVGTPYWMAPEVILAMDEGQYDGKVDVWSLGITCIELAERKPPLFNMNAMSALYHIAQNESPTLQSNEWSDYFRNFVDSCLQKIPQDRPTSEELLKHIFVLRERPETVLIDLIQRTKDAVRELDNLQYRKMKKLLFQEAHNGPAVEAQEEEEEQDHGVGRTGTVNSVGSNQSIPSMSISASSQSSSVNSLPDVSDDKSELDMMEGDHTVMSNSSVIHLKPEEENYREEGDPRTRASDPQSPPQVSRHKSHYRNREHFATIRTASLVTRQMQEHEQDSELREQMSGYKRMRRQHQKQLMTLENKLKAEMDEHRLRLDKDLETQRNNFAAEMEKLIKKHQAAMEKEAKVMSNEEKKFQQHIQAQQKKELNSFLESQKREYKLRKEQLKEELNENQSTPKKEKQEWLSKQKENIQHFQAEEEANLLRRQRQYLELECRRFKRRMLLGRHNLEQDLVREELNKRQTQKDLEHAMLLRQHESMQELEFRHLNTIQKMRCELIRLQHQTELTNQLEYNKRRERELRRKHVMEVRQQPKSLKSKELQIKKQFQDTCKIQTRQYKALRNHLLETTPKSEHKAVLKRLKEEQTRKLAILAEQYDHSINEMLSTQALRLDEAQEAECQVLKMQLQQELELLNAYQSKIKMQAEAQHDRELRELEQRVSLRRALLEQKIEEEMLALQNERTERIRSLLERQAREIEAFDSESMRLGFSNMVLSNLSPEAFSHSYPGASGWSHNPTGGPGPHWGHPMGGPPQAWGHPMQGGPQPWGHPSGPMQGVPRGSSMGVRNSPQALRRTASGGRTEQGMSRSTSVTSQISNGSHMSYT

[6] = biological target: Mitogen-activated protein kinase kinase kinase 9 (Homo sapiens) (UniProt P80192); experiment: Inhibition of MLK1 assessed as residual activity of enzyme at 10 uM
[7] = biological target: Serine/threonine-protein kinase mTOR (Homo sapiens) (UniProt P42345); experiment: Inhibition of mTOR assessed as residual activity of enzyme at 25 uM
[8] = biological target: Casein kinase I isoform alpha (Homo sapiens) (UniProt P48729); experiment: Inhibition of CK1 assessed as residual activity of enzyme at 25 uM
Sequence of Casein kinase I isoform alpha (Homo sapiens) (P48729 2-337 limits assumed): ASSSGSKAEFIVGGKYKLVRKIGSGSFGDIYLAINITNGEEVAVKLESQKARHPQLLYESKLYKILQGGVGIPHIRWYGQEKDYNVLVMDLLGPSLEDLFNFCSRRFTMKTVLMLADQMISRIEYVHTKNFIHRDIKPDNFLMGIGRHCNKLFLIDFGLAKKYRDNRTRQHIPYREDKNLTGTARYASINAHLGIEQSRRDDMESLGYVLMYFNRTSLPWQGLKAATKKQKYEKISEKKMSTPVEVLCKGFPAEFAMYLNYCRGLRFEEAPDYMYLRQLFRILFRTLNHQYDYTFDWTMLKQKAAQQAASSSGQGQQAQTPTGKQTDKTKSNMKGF

Sequence of Leucine-rich repeat serine/threonine-protein kinase 2 (Homo sapiens), Q5S007 [G2019S] (Q5S007 whole entry G2019S): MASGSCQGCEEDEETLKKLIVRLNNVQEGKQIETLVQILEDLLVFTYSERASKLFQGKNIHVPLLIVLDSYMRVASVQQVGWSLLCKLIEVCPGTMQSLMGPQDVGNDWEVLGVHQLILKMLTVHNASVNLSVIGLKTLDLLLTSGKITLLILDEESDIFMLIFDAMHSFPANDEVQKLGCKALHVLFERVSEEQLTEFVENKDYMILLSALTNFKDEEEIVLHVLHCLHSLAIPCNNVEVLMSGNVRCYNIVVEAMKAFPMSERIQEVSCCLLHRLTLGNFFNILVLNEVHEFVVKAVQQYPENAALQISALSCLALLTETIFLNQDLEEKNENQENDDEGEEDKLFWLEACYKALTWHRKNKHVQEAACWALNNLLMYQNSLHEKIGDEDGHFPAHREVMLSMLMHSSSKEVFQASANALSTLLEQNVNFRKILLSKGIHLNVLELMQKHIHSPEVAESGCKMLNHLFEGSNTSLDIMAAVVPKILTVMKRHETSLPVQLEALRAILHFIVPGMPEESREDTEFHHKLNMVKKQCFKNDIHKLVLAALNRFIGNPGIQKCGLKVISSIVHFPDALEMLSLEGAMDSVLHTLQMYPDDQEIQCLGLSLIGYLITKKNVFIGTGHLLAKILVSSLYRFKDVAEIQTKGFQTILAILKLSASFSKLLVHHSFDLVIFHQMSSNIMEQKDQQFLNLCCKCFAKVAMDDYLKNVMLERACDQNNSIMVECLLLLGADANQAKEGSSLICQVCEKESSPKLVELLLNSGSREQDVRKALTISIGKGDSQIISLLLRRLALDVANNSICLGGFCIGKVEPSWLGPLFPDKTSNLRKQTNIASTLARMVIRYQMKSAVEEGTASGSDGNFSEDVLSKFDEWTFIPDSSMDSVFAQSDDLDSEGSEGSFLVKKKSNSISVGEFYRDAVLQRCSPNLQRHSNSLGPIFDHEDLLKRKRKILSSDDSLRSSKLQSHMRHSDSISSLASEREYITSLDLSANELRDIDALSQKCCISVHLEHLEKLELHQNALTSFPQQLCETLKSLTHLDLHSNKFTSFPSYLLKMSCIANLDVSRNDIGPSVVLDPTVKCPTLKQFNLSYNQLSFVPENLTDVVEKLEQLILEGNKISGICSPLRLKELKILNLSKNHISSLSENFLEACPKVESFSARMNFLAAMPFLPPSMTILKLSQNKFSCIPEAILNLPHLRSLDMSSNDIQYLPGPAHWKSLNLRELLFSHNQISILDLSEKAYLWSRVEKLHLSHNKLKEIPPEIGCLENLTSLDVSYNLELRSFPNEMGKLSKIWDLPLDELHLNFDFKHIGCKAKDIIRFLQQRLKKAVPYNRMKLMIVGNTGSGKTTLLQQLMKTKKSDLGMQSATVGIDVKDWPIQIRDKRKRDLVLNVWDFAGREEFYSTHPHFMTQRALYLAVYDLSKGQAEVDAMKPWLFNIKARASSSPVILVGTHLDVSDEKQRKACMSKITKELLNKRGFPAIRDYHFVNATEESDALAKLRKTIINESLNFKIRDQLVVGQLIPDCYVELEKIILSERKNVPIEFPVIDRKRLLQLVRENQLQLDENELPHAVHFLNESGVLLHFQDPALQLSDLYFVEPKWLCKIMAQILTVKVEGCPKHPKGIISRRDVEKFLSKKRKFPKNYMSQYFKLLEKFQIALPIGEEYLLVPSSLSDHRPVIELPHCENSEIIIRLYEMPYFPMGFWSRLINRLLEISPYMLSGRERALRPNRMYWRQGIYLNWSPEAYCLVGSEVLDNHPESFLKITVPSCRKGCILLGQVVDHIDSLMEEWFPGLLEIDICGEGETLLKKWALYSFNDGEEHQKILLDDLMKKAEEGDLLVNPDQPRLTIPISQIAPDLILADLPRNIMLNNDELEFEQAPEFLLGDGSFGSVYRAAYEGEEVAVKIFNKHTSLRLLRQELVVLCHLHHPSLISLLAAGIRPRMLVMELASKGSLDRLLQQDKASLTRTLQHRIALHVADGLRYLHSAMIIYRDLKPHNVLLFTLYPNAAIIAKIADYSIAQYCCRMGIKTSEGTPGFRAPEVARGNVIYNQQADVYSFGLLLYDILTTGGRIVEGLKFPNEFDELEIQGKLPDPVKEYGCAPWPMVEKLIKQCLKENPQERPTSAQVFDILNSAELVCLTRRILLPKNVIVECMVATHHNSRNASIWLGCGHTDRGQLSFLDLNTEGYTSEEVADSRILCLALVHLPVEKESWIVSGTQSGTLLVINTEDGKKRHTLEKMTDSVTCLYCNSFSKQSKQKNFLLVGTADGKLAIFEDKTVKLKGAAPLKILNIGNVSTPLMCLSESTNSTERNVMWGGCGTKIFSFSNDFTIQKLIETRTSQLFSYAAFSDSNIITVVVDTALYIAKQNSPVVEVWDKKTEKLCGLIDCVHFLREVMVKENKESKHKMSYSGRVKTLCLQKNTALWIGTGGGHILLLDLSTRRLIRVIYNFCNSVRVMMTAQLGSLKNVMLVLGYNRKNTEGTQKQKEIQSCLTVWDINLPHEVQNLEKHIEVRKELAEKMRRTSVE
Sequence of Leucine-rich repeat serine/threonine-protein kinase 2 (Homo sapiens) (Q5S007 whole entry): as the sequence (Q5S007 whole entry G2019S) above, with S2019G counted along it
Sequence of Mitogen-activated protein kinase kinase kinase 9 (Homo sapiens) (P80192 whole entry, looked up): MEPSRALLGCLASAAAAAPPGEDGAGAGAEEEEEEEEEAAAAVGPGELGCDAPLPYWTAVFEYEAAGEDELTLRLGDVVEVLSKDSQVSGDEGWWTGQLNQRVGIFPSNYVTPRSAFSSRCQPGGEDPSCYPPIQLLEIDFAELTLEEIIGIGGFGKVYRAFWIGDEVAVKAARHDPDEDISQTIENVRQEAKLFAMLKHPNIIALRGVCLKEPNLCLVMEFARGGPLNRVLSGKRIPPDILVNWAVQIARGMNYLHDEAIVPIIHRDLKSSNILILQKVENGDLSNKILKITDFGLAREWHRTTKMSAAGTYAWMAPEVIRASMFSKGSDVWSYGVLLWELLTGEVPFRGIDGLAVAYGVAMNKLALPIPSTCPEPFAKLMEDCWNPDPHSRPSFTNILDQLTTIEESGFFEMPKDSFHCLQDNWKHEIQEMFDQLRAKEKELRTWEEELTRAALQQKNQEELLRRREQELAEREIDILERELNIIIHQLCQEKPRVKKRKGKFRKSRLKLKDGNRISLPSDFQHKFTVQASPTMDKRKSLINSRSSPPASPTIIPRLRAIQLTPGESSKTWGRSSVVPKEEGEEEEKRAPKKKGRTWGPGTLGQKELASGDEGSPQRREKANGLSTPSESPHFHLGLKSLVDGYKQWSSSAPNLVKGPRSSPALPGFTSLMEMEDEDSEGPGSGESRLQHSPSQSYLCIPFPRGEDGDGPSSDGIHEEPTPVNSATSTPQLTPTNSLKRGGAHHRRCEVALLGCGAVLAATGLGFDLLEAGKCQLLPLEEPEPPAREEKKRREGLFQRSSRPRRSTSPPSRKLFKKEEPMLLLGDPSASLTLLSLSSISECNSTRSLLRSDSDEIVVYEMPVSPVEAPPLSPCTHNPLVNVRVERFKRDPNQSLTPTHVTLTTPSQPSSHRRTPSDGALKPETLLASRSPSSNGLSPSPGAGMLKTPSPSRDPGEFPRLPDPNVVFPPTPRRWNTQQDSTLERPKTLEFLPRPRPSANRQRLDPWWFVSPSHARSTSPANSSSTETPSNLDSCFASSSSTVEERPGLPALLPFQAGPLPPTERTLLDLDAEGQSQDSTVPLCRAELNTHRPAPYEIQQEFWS
Sequence of Cyclin-dependent kinase 5/CDK5 activator 1 (Homo sapiens) (Q00535 whole entry): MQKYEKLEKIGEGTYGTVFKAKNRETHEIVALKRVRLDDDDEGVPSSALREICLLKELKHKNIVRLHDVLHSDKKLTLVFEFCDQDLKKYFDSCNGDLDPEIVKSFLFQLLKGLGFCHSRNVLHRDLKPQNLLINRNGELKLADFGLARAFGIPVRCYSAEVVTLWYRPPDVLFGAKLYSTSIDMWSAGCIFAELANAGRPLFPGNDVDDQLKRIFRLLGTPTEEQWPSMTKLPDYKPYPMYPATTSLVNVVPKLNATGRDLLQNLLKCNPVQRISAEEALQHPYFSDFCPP
Sequence of Cyclin-dependent kinase 5/CDK5 activator 1 (Homo sapiens) (Q15078 99-307 partner limits assumed): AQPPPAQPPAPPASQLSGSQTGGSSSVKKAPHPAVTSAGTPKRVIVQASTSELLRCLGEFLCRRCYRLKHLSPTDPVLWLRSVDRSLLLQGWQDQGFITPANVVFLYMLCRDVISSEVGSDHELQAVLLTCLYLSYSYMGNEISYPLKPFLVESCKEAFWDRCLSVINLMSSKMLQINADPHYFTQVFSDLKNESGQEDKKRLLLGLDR

Cc1cc(N/N=C/c2ccncc2)nc2ccccc12
Activity [1]: 50%
Activity [2]: 84%
Activity [3]: 97%
Activity [4]: 50%
Activity [5]: 88%
Activity [6]: 20%
Activity [7]: 99%
Activity [8]: 59%
